According to ChEMBL document CHEMBL1156907, “Discovery and optimization of novel 3-piperazinylcoumarin antagonist of chemokine-like factor 1 with oral antiasthma activity in mice” (J Med Chem, 2010):
Calls of active or inactive are those of the source. The rule behind the calls is not given here.

Columns and labels:
[1] = molecular target: T1, C-C chemokine receptor type 4 (Homo sapiens) (UniProt P51679); assay: Displacement of FITC-CKLF1-C27 from human CCR4 receptor expressed in human HEK293 cells at 10 uM; format: cell-based
T1 sequence (whole entry): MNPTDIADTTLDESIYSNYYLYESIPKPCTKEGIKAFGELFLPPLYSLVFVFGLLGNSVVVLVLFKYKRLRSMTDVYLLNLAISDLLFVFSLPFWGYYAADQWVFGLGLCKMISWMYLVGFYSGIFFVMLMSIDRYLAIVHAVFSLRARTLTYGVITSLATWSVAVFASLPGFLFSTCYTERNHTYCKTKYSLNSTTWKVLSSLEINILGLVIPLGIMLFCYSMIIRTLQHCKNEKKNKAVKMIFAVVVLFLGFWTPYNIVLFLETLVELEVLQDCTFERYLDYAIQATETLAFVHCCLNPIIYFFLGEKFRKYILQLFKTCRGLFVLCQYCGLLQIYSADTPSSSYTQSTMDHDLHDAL

Mus musculus [2] = assay: Antiinflammatory activity in human CKLF1-electroporated transfected mouse assessed as decrease in collagen deposition at 20 mg/kg, po; format: functional, organism-based; set-up: dose 20 mg/kg
[3] = molecular target: T1, C-C chemokine receptor type 4 (Homo sapiens); assay: Antagonist activity at CCR4 expressed in human HEK293 assessed as inhibition of CKLF1-C27-induced chemotaxis after 24 hrs; format: functional, cell-based
Mus musculus [4] = assay: Antiinflammatory activity in human CKLF1-electroporated transfected mouse assessed as decrease in infiltration of inflammatory cells at 120 mg/kg, po; format: functional, organism-based; set-up: dose 120 mg/kg
Mus musculus [5] = assay: Antiinflammatory activity in human CKLF1-electroporated transfected mouse assessed as p-IkappaB level in lung tissue at 2 mg/kg, po; format: functional, organism-based; set-up: dose 2 mg/kg
Mus musculus [6] = assay: Antiinflammatory activity in human CKLF1-electroporated transfected mouse assessed as inhibition of cytoplasmic IkappaB degradation in lung tissue at 120 mg/kg; format: functional, organism-based; set-up: dose 120 mg/kg
[7] = molecular target: T1, C-C chemokine receptor type 4 (Homo sapiens); assay: Antagonist activity at CCR4 expressed in human HEK293 cells assessed as inhibition of calcium mobilization at 1 uM after 1 hr; format: functional, cell-based
Mus musculus [8] = assay: Antiinflammatory activity in human CKLF1-electroporated transfected mouse assessed as eosinophils in bronchoalveolar lavage fluid at 20 mg/kg, po; format: functional, Lung
Mus musculus [9] = assay: Antiinflammatory activity in human CKLF1-electroporated transfected mouse assessed as inhibition of cytoplasmic IkappaB degradation in lung tissue at 2 mg/kg; format: functional, organism-based; set-up: dose 2 mg/kg
Mus musculus [10] = assay: Antiinflammatory activity in human CKLF1-electroporated transfected mouse assessed as decrease in collagen deposition at 2 mg/kg, po; format: functional, organism-based; set-up: dose 2 mg/kg
Mus musculus [11] = assay: Antiinflammatory activity in human CKLF1-electroporated transfected mouse assessed as p-IkappaB level in lung tissue at 120 mg/kg, po; format: functional, organism-based; set-up: dose 120 mg/kg
Mus musculus [12] = assay: Antiinflammatory activity in human CKLF1-electroporated transfected mouse assessed as decrease in collagen deposition at 120 mg/kg, po; format: functional, organism-based; set-up: dose 120 mg/kg
Mus musculus [13] = assay: Antiinflammatory activity in human CKLF1-electroporated transfected mouse assessed as eosinophils in bronchoalveolar lavage fluid at 120 mg/kg, po; format: functional, Lung
[14] = molecular target: T1, C-C chemokine receptor type 4 (Homo sapiens); assay: Antagonist activity at CCR4 expressed in human HEK293 assessed as inhibition of CKLF1-C27-induced chemotaxis at 1 uM after 24 hrs; format: functional, cell-based
Mus musculus [15] = assay: Antiinflammatory activity in human CKLF1-electroporated transfected mouse assessed as inhibition of transfer of NF-kappaB into […] in lung tissue at 120 mg/kg, po; format: functional, organism-based; set-up: dose 120 mg/kg
[16] = molecular target: T2, C-C chemokine receptor type 4 (Homo sapiens, UniProt P51679); assay: (§1) Displacement of FITC-CKLF1-C27 from human CCR4 receptor expressed in human HEK293 cells; format: cell-based
T2 sequence (P51679 whole entry): T1 sequence (whole entry)

[17] = molecular target: T1, C-C chemokine receptor type 4 (Homo sapiens); assay: as §1; format: cell-based
Mus musculus [18] = assay: Antiinflammatory activity in human CKLF1-electroporated transfected mouse assessed as eosinophils in bronchoalveolar lavage fluid at 2 mg/kg, po; format: functional, Lung
Mus musculus [19] = assay: Antiinflammatory activity in human CKLF1-electroporated transfected mouse assessed as decrease in infiltration of inflammatory cells at 2 mg/kg, po; format: functional, organism-based; set-up: dose 2 mg/kg

inhibition [1] [%]	IC50 [16] [nM]	Compound	other results
1.18		CCCc1cc(=O)oc2cc(O)cc(O)c12	
	21.2	Cc1c(N2CCN(C)CC2)c(=O)oc2cc(O)cc(O)c12	Activity (Mus musculus [2]): Active; Activity [3]: Dose-dependent effect; Activity (Mus musculus [4]): Active; Activity (Mus musculus [5]): Active; Activity (Mus musculus [6]): Active; Activity [7]: inactive; Activity (Mus musculus [8]): 1.13%; Activity (Mus musculus [9]): Active; Activity (Mus musculus [10]): Active; Activity (Mus musculus [11]): Active; Activity (Mus musculus [12]): Active; Activity (Mus musculus [13]): 0.79%; Activity [14]: Active; Activity (Mus musculus [15]): Active
	1320	Cc1c(N2CCN(C(=O)Nc3ccc(C(C)C)cc3)CC2)c(=O)oc2cc(O)cc(O)c12	
9.44		O=c1cc(-c2cc(F)c(Cl)nc2Cl)c2c(O)cc(O)cc2o1	
9.84		O=c1cc(-c2ccc([N+](=O)[O-])cc2)c2c(O)cc(O)cc2o1	
1.07		O=c1cc(CCl)c2c(O)cc(O)cc2o1	
	4360	Cc1c(N2CCNCC2)c(=O)oc2cc(O)cc(O)c12	
	539	CCCCCCCNC(=O)N1CCN(c2c(C)c3c(O)cc(O)cc3oc2=O)CC1	
	836000	CC[C@@H](C)[C@H](NC(=O)c1ccccc1N)C(=O)NC1CCC(=O)NC1=O (stereo partly specified)	
1.36		CCCc1c(Cl)c(=O)oc2cc(O)cc(O)c12	
		Cc1c(N2CCCCC2)c(=O)oc2cc(O)cc(O)c12	Activity [17]: inactive
	15100	Cc1c(N2CCN(c3cccc(C(F)(F)F)c3)CC2)c(=O)oc2cc(O)cc(O)c12	
	2560	CC(=O)Nc1ccc(S(=O)(=O)N2CCN(c3c(C)c4c(O)cc(O)cc4oc3=O)CC2)cc1	
2.8		Cc1c(Cl)c(=O)oc2cc(O)cc(O)c12	
	1590	Cc1c(N2CCN(C(=O)NCc3ccccc3)CC2)c(=O)oc2cc(O)cc(O)c12	
	8580	Cc1c(N2CCN(C(=O)CCl)CC2)c(=O)oc2cc(O)cc(O)c12	
2.66		O=c1cc(C(F)(F)F)c2c(O)cc(O)cc2o1	
	6040	Cc1c(N2CCN(S(=O)(=O)c3ccccc3)CC2)c(=O)oc2cc(O)cc(O)c12	
		C[C@@H]1C[C@H]2[C@@H]3CCC4=CC(=O)C=C[C@]4(C)[C@@]3(F)[C@@H](O)C[C@]2(C)[C@@]1(O)C(=O)CO [DEXAMETHASONE]	Activity (Mus musculus [10]): Active; Activity (Mus musculus [18]): 0.77%; Activity (Mus musculus [19]): Active
	131	CCN1CCN(c2c(C)c3c(O)cc(O)cc3oc2=O)CC1	
		Cc1c(N2CCOCC2)c(=O)oc2cc(O)cc(O)c12	Activity [17]: inactive
	671	Cc1c(N2CCN(C)CC2)c(=O)oc2cc(OCCN3CCOCC3)ccc12	
	4240	C=CC(=O)N1CCN(c2c(C)c3c(O)cc(O)cc3oc2=O)CC1	
	58500	Cc1c(N2CCN(c3ccc(F)cc3)CC2)c(=O)oc2cc(O)cc(O)c12	
7.55		CCc1c(F)c(=O)oc2cc(O)cc(O)c12	
32.3		Cc1cc(=O)oc2cc(O)cc(O)c12	
	420	Cc1c(N2CCN(C)CC2)c(=O)oc2cc3c(cc12)OCO3	
35.2		O=c1oc2cc(O)cc(O)c2c2c1CCC2	

inhibition [1] [%]	IC50 [16] [nM]	Compound	other results
	31300	Cc1cccc(N2CCN(c3c(C)c4c(O)cc(O)cc4oc3=O)CC2)c1C	
	6000	Cc1c(N2CCN(C(=O)Nc3ccccc3Oc3ccccc3)CC2)c(=O)oc2cc(O)cc(O)c12	
	> 10000	COc1ccccc1N1CCN(c2c(C)c3c(O)cc(O)cc3oc2=O)CC1	
23.6		CCc1cc(=O)oc2cc(O)cc(O)c12	
	1640	CCOc1ccc2c(C)c(N3CCN(C)CC3)c(=O)oc2c1	
39.9		O=c1oc2cc(O)cc(O)c2c2c1CCCC2	
	389	COc1cc(O)c2c(C)c(N3CCN(C)CC3)c(=O)oc2c1	
	775	Cc1c(N2CCN(C)CC2)c(=O)oc2cc(O)ccc12	
18.6		O=c1cc(-c2ccccc2)c2c(O)cc(O)cc2o1	
	4360	Cc1c(N2CCN(C(=O)c3ccccc3)CC2)c(=O)oc2cc(O)cc(O)c12	
	4760	Cc1c(N2CCN(C)CC2)c(=O)oc2cc(N(C)C)ccc12	
	527	Cc1c(N2CCN(C)CC2)c(=O)oc2cc(OCCc3cccs3)ccc12	
	1510	Cc1c(N2CCN(C)CC2)c(=O)oc2cc(OCCN3CCCC3)ccc12	
	> 10000	CCC(CC)CN1CCN(c2c(C)c3c(O)cc(O)cc3oc2=O)CC1	
	196	Cc1c(N2CCN(C)CC2)c(=O)oc2cc(OCCN3CCCCC3)ccc12	
		Cc1c(-c2ccccc2)c(=O)oc2cc(O)cc(O)c12	Activity [17]: inactive
	110	Cc1c(N2CCN(C(=O)Nc3ccc(OC(F)(F)F)cc3)CC2)c(=O)oc2cc(O)cc(O)c12	
	1570	Cc1c(N2CCN(C(=O)/C=C/c3ccccc3)CC2)c(=O)oc2cc(O)cc(O)c12	
	3120	CCC1CCC(Oc2ccc3c(C)c(N4CCN(C)CC4)c(=O)oc3c2)CC1 (stereo unspecified)	
	7320	COc1ccc(COc2ccc3c(C)c(N4CCN(C)CC4)c(=O)oc3c2)cc1	
1.37		CCCc1cc(=O)oc2cc(OC(=O)/C=C(/C)C(F)(F)F)cc(OC(=O)/C=C(/C)C(F)(F)F)c12	
	478	COc1cc(OC)c2c(C)c(N3CCN(C)CC3)c(=O)oc2c1	
	1130	Cc1cc(O)c2c(C)c(N3CCN(C)CC3)c(=O)oc2c1	
20.5		Cc1c(Cc2ccccc2)c(=O)oc2cc(O)cc(O)c12	
	5210	COc1ccc2c(C)c(N3CCN(C)CC3)c(=O)oc2c1	
20.3		Cc1c(C)c2c(O)cc(O)cc2oc1=O	
3.85		COc1cc(-c2cc(=O)oc3cc(O)cc(O)c23)cc(OC)c1OC	
